Measured values taken from ChEMBL document CHEMBL1144604, “Synthesis and biological evaluation of phosphonate derivatives as autotaxin (ATX) inhibitors” (Bioorg Med Chem Lett, 2007).

Legend:
[1] = molecular target: Autotaxin (Homo sapiens) (UniProt Q13822); test: Inhibition of human recombinant ATX at 1 uM after 16 hrs; values are per cent of control
[2] = molecular target: Autotaxin (Homo sapiens) (UniProt Q13822); test: Inhibition of human recombinant ATX at 10 uM after 16 hrs; values are per cent of control
[3] = molecular target: Autotaxin (Homo sapiens) (UniProt Q13822); test: Inhibition of human recombinant ATX at 100 uM after 16 hrs; values are per cent of control

Row | Compound | residual activity [1] | residual activity [2] | residual activity [3]
1 | CCCCCCCCCCCCCCCCCC(=O)N[C@@H](Cc1ccc(OCc2ncc(C)c(OC)c2C)cc1)C(O)CP(=O)(O)O (stereo in doubt; f39) | 101% | 91% | 81%
2 | CCCCCCCCCCCCCCCC(=O)N[C@H](Cc1ccc(OCc2ncc(C)c(OC)c2C)cc1)C(=O)CP(=O)(O)O | 71% | 74% | 26%
3 | CCCCCCCCCCCCCCCC(=O)N[C@@H](Cc1ccc(OCc2cc(OCC(F)(F)F)ccn2)cc1)C(O)CP(=O)(O)O (stereo in doubt; f3) | 92% | 80% | 32%
4 | CCCCCCCCCCCCCCCC(=O)N[C@@H](Cc1ccc(OCc2ccccn2)cc1)C(O)CP(=O)(O)O (single isomer, unassigned; diastereomer a) | 104% | 81% | 52%
5 | CCCCCCCCCCCCCCCC(=O)N[C@H](Cc1ccc(OC)cc1)C(=O)CP(=O)(O)O | 84% | 71% | 32%
6 | CCCCCCCCCCCCCCCC(=O)N[C@H](Cc1ccc(OCCC)cc1)C(O)CP(=O)(O)O (stereo in doubt) | 80% | 79% | 72%
7 | CCCCCCCCCCCCCCCC(=O)N[C@H](Cc1ccc(OCc2ncc(C)c(OC)c2C)cc1)C(O)CP(=O)(O)O (single isomer, unassigned; diastereomer b) | 69% | 64% | 47%
8 | CCCCCCCCCCCCCCCC(=O)N[C@@H](Cc1ccc(OCCCCC)cc1)C(O)CP(=O)(O)O (single isomer, unassigned; diastereomer a) | 98% | 83% | 67%
9 | CCCCCCCCCCCCCCCC(=O)N[C@H](Cc1ccc(OCc2ccccn2)cc1)C(=O)CP(=O)(O)O | 78% | 68% | 52%
10 | CCCCCCCCCCCCCCCC(=O)N[C@H](Cc1ccc(OCc2cc(OCC(F)(F)F)ccn2)cc1)C(O)CP(=O)(O)O (single isomer, unassigned; diastereomer a) | 92% | 84% | 55%
11 | CCCCCCCCCCCCCCCC(=O)N[C@@H](Cc1ccc(OCCC(C)C)cc1)C(O)CP(=O)(O)O (stereo in doubt; f34) | 106% | 101% | 91%
12 | CCCCCCCCCCCCCCCC(=O)N[C@@H](Cc1ccc(OCCC)cc1)C(O)CP(=O)(O)O (single isomer, unassigned; diastereomer b) | 100% | 100% | 83%
